Source: US20240132484A1, “BROAD SPECTRUM ANTIVIRAL COMPOUNDS TARGETING THE SKI COMPLEX” (priority 2020, published 2024)
Several values for one entry are separate records, joined by “and”; a condition that tells them apart may be missing. Equal values may be shown once. Read-outs that look alike come from different tables or passages of the source.

What was measured:
cells (nuclei count) = details: for Relative cell count to DMSO controls, Average 1 μM / Relative cell count to DMSO controls, Average 5 μM / Relative cell count to DMSO controls, Average 10 μM / Relative cell count to DMSO controls, Average 25 μM / Relative cell count to DMSO controls, Average 50 μM: toxicity data, 100=DMSO control; for Relative cell count to DMSO controls, Average (for correlation analysis): average value over the 5 tested concentrations (1 to 50 uM)
SARS2 = format: cell-based, SARS-CoV-2; details: for Percentage Inhibition Average 1 μM / Screening data (Relative infection to DMSO controls) Average 1 μM: SARS2, 1 μM; for Screening data (Relative infection to DMSO controls) Average 1 μM / Screening data (Relative infection to DMSO controls) Average 5 μM / Screening data (Relative infection to DMSO controls) Average 10 μM / Screening data (Relative infection to DMSO controls) Average 25 μM / Screening data (Relative infection to DMSO controls) Average 50 μM / Average (relative infection to DMSO over the 5 tested concentrations): 100=DMSO control; for Percentage Inhibition Average 5 μM / Screening data (Relative infection to DMSO controls) Average 5 μM: SARS2, 5 μM; for Percentage Inhibition Average 10 μM / Screening data (Relative infection to DMSO controls) Average 10 μM: SARS2, 10 μM; for Percentage Inhibition Average 25 μM / Screening data (Relative infection to DMSO controls) Average 25 μM: SARS2, 25 μM; for Percentage Inhibition Average 50 μM / Screening data (Relative infection to DMSO controls) Average 50 μM: SARS2, 50 μM; for Average (relative infection to DMSO over the 5 tested concentrations): SARS2, average over 1 to 50 uM; for Percentage Infection Relative to Appropriate DMSO Control with Avg Background Subtraction: single well

CC1=C(C(=O)NCc2ccccc2)C(c2ccc(C)o2)NC(=O)N1 (stereo not shown) [SILCS69]
Relative cell count to DMSO controls, Average 1 μM (cells (nuclei count)): 114.56
Relative cell count to DMSO controls, Average 5 μM (cells (nuclei count)): 113.8
Relative cell count to DMSO controls, Average 10 μM (cells (nuclei count)): 108.32
Relative cell count to DMSO controls, Average 25 μM (cells (nuclei count)): 93.65
Relative cell count to DMSO controls, Average 50 μM (cells (nuclei count)): 79.5
Relative cell count to DMSO controls, Average (for correlation analysis) (cells (nuclei count)): 101.97
Percentage Inhibition Average 1 μM (SARS2): 44.23%
Screening data (Relative infection to DMSO controls) Average 1 μM (SARS2): 55.77
Percentage Inhibition Average 5 μM (SARS2): 29.45%
Screening data (Relative infection to DMSO controls) Average 5 μM (SARS2): 70.55
Percentage Inhibition Average 10 μM (SARS2): 24.51%
Screening data (Relative infection to DMSO controls) Average 10 μM (SARS2): 75.49
Percentage Inhibition Average 25 μM (SARS2): −26.06%
Screening data (Relative infection to DMSO controls) Average 25 μM (SARS2): 126.06
Percentage Inhibition Average 50 μM (SARS2): −48.18%
Screening data (Relative infection to DMSO controls) Average 50 μM (SARS2): 148.18
Average (relative infection to DMSO over the 5 tested concentrations) (SARS2): 95.21

COc1ccc(C2NC(=O)NC(C)=C2C(=O)NC2CCCCCC2)cc1OC (stereo not shown) [SILCS59]
Relative cell count to DMSO controls, Average 1 μM (cells (nuclei count)): 115.37
Relative cell count to DMSO controls, Average 5 μM (cells (nuclei count)): 119.78
Relative cell count to DMSO controls, Average 10 μM (cells (nuclei count)): 116.3
Relative cell count to DMSO controls, Average 25 μM (cells (nuclei count)): 100.03
Relative cell count to DMSO controls, Average 50 μM (cells (nuclei count)): 86.44
Relative cell count to DMSO controls, Average (for correlation analysis) (cells (nuclei count)): 107.58
Percentage Inhibition Average 1 μM (SARS2): 29.42%
Screening data (Relative infection to DMSO controls) Average 1 μM (SARS2): 70.58
Percentage Inhibition Average 5 μM (SARS2): 33.20%
Screening data (Relative infection to DMSO controls) Average 5 μM (SARS2): 66.80
Percentage Inhibition Average 10 μM (SARS2): 16.88%
Screening data (Relative infection to DMSO controls) Average 10 μM (SARS2): 83.12
Percentage Inhibition Average 25 μM (SARS2): −8.59%
Screening data (Relative infection to DMSO controls) Average 25 μM (SARS2): 108.59
Percentage Inhibition Average 50 μM (SARS2): −28.37%
Screening data (Relative infection to DMSO controls) Average 50 μM (SARS2): 128.37
Average (relative infection to DMSO over the 5 tested concentrations) (SARS2): 91.49

Cc1cc(CN(CCN(C)C)Cc2ccsc2)oc1C [SILCS27]
Relative cell count to DMSO controls, Average 1 μM (cells (nuclei count)): 109.07
Relative cell count to DMSO controls, Average 5 μM (cells (nuclei count)): 120.66
Relative cell count to DMSO controls, Average 10 μM (cells (nuclei count)): 120.18
Relative cell count to DMSO controls, Average 25 μM (cells (nuclei count)): 103.23
Relative cell count to DMSO controls, Average 50 μM (cells (nuclei count)): 86.33
Toxicity Data, Average, Mean (cells (nuclei count); Average of Exp 1-3, n 9, 1 uM): 109.07%
Toxicity Data, Average, Mean (cells (nuclei count); Average of Exp 1-3, n 9, 5 uM): 120.66%
Toxicity Data, Average, Mean (cells (nuclei count); Average of Exp 1-3, n 9, 10 uM): 120.18%
Toxicity Data, Average, Mean (cells (nuclei count); Average of Exp 1-3, n 9, 25 uM): 103.23%
Toxicity Data, Average, Mean (cells (nuclei count); Average of Exp 1-3, n 9, 50 uM): 86.33%
Relative cell count to DMSO controls, Average (for correlation analysis) (cells (nuclei count)): 107.89
Infection Data, Average, Mean (SARS2; Average of Exp 1-3, n 9, 1 uM): 101.69%
Infection Data, Average, Mean (SARS2; Average of Exp 1-3, n 9, 5 uM): 91.50%
Infection Data, Average, Mean (SARS2; Average of Exp 1-3, n 9, 10 uM): 93.59%
Infection Data, Average, Mean (SARS2; Average of Exp 1-3, n 9, 25 uM): 67.45%
Infection Data, Average, Mean (SARS2; Average of Exp 1-3, n 9, 50 uM): 20.11%
Percentage Infection Relative to Appropriate DMSO Control with Avg Background Subtraction (SARS2; Exp 1 (SMW475), 1 uM): 107.33% and 128.47% and 95.32%
Percentage Infection Relative to Appropriate DMSO Control with Avg Background Subtraction (SARS2; Exp 1 (SMW475), 5 uM): 113.52% and 118.94% and 106.69%
Percentage Infection Relative to Appropriate DMSO Control with Avg Background Subtraction (SARS2; Exp 1 (SMW475), 10 uM): 137.00% and 134.73% and 122.43%
Percentage Infection Relative to Appropriate DMSO Control with Avg Background Subtraction (SARS2; Exp 1 (SMW475), 25 uM): 63.59% and 56.84% and 58.04%
Percentage Infection Relative to Appropriate DMSO Control with Avg Background Subtraction (SARS2; Exp 1 (SMW475), 50 uM): 15.03% and 16.97% and 13.28%
Percentage Infection Relative to Appropriate DMSO Control with Avg Background Subtraction (SARS2; Exp 2 (SMW477), 1 uM): 100.41% and 105.41% and 110.54%
Percentage Infection Relative to Appropriate DMSO Control with Avg Background Subtraction (SARS2; Exp 2 (SMW477), 5 uM): 92.70% and 91.91% and 94.77%
Percentage Infection Relative to Appropriate DMSO Control with Avg Background Subtraction (SARS2; Exp 2 (SMW477), 10 uM): 76.80% and 77.09% and 89.00%
Percentage Infection Relative to Appropriate DMSO Control with Avg Background Subtraction (SARS2; Exp 2 (SMW477), 25 uM): 62.89% and 48.77% and 73.05%
Percentage Infection Relative to Appropriate DMSO Control with Avg Background Subtraction (SARS2; Exp 2 (SMW477), 50 uM): 26.32% and 19.89% and 21.80%
Percentage Infection Relative to Appropriate DMSO Control with Avg Background Subtraction (SARS2; Exp 3 (SMW478), 1 uM): 87.75% and 89.34% and 90.68%
Percentage Infection Relative to Appropriate DMSO Control with Avg Background Subtraction (SARS2; Exp 3 (SMW478), 5 uM): 79.11% and 61.06% and 64.83%
Percentage Infection Relative to Appropriate DMSO Control with Avg Background Subtraction (SARS2; Exp 3 (SMW478), 10 uM): 89.71% and 51.99% and 63.55%
Percentage Infection Relative to Appropriate DMSO Control with Avg Background Subtraction (SARS2; Exp 3 (SMW478), 25 uM): 80.23% and 76.86% and 86.74%
Percentage Infection Relative to Appropriate DMSO Control with Avg Background Subtraction (SARS2; Exp 3 (SMW478), 50 uM): 18.61% and 22.87% and 26.23%
Percentage Inhibition Average 1 μM (SARS2): −1.69%
Screening data (Relative infection to DMSO controls) Average 1 μM (SARS2): 101.69
Percentage Inhibition Average 5 μM (SARS2): 8.50%
Screening data (Relative infection to DMSO controls) Average 5 μM (SARS2): 91.50
Percentage Inhibition Average 10 μM (SARS2): 6.41%
Screening data (Relative infection to DMSO controls) Average 10 μM (SARS2): 93.59
Percentage Inhibition Average 25 μM (SARS2): 32.55%
Screening data (Relative infection to DMSO controls) Average 25 μM (SARS2): 67.45
Percentage Inhibition Average 50 μM (SARS2): 79.89%
Screening data (Relative infection to DMSO controls) Average 50 μM (SARS2): 20.11
Average (relative infection to DMSO over the 5 tested concentrations) (SARS2): 74.87
